Values of other authors in publication PMC9268102, “Design, Synthesis and Biological Evaluation of 1,3,5-Triazine Derivatives Targeting hA1 and hA3 Adenosine Receptor” (Molecules, 2022).
pKi: −log10 of the molar value. Values joined by “and” are separate entries in the source; they are usually repeats but may differ in a detail not shown here. Equal values may be shown once.

What was measured:
hA3 AR = target: T1, hA3 AR (Homo sapiens, UniProt P0DMS8); design: expressed in transfected cells; host or cells: Hela-A3 cell line; method as in PMID 31280999, PMID 31780082, PMID 27531666; details: read-out: Ki at hA3AR; cited from earlier work
T1 sequence (P0DMS8 1-318): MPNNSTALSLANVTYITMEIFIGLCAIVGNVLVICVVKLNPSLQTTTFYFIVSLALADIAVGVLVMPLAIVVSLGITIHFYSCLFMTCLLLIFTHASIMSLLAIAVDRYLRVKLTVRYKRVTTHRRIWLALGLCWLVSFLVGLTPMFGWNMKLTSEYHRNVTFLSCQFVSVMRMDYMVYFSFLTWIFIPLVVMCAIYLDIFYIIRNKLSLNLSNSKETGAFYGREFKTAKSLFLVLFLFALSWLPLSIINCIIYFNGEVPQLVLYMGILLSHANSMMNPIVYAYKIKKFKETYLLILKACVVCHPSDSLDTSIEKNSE

hA1 AR = target: T2, hA1 AR (Homo sapiens, UniProt P30542); details: read-out: Ki at hA1AR; cited from earlier work
T2 construct: host or cells: CHO-A1 (CHO cells expressing hA1 AR)
T2 sequence (P30542 1-326): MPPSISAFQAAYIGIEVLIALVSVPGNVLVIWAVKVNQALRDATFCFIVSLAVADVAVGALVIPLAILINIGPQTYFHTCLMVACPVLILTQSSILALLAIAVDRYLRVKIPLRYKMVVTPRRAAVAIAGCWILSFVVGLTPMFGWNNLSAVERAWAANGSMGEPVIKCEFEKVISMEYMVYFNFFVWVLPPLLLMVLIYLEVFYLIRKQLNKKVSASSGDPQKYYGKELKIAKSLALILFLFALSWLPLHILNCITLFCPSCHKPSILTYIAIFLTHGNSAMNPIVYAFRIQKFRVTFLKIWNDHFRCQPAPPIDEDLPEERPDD

hA2A AR = target: T3, hA2A AR (Homo sapiens, UniProt P29274); details: cited from earlier work
T3 construct: expressed in transfected cells; host or cells: Hela-A2A cell line
T3 sequence (P29274 whole entry): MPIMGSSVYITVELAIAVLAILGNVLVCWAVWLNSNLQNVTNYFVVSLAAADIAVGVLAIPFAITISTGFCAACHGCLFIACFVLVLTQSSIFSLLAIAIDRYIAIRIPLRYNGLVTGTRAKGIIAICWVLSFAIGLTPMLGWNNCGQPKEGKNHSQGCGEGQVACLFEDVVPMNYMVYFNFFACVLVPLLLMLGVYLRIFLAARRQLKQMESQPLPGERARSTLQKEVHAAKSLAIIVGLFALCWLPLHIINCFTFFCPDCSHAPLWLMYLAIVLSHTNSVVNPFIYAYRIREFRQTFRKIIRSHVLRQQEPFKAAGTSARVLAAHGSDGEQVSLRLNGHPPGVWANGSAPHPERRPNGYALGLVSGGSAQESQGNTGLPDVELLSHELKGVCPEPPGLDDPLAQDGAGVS

SMILES | pKi (hA3 AR) | pKi (hA1 AR) | Selectivity hA1/hA2AAR (hA2A AR) | pKi (hA2A AR; read-out: Ki at hA2AAR)
CN1CCN(c2nc(-c3cccc(O)c3)nc3[nH]cnc23)CC1 [Compound 1] | 8.20 | 8.17 |  | 
Nc1nc(NCCc2ccc(O)cc2)nc(Nc2nnc(-c3ccc(Cl)cc3)s2)n1 [Compound 5] |  | 6.28 | 11.66 | 7.35
Nc1nc(NCCc2ccc(O)cc2)nc(Nc2nc(-c3ccc(F)cc3)cs2)n1 [Compound 6] |  | 6.32 | 319 and 318.9 | 
